The results in this text go back to ChEMBL document CHEMBL5550141, “Photo-regulated PROTACs: A novel tool for temporal control of targeted protein degradation” (Bioorg Med Chem Lett, 2024).

Active and inactive are the calls of the source. The calls are words filed in the database; no cut-off is given here.

The target of data set [1] is T1, Protein cereblon/Bromodomain-containing protein 4 (Homo sapiens) (UniProt O60885+Q96SW2). The data set can be described thus: PROTAC activity at CRBN/BRD4 in human MCF7 cells assessed as induction of BRD4 degradation at 1 uM measured after 18 hrs in presence of MG132 by Western blot analysis. It is filed as cell-based.
T1 sequence (Q96SW2 whole entry, looked up, other chains not shown): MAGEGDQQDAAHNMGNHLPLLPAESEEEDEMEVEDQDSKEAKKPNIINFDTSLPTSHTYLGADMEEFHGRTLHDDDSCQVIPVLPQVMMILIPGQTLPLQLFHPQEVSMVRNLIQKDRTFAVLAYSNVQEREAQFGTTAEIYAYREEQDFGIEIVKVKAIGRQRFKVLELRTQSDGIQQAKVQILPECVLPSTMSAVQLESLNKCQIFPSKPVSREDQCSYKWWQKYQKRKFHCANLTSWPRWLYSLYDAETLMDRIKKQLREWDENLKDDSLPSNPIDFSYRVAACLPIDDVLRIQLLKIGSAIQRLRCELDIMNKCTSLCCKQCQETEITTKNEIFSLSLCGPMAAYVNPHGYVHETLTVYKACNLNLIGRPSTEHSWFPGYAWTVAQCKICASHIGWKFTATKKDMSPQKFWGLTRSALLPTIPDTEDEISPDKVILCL
Data set [2] deals with T1, Protein cereblon/Bromodomain-containing protein 4 (Homo sapiens). The data set is described as follows: PROTAC activity at CRBN/BRD4 in human MCF7 cells assessed as induction of BRD4 degradation at 1 uM measured after 24 hrs by Western blot analysis. It is filed as cell-based.
Data set [3] shares this target. The data set is described as follows: PROTAC activity at CRBN/BRD4 in human MCF7 cells assessed as induction of BRD4 degradation at 1 uM measured after 6 to 24 hrs by Western blot analysis relative to control. The following applies: time 6-24 hrs. It is filed as cell-based. Background: Immunoblotting shows a protein as a band on a membrane.
The target is the same in data set [4]. The data set can be described thus: PROTAC activity at CRBN/BRD4 in human MCF7 cells assessed as induction of BRD4 degradation measured after 6 to 24 hrs by Western blot analysis. It is filed as cell-based. The following applies: dose <= 1.0 µM, time 6-24 hrs.
Data set [5] can be described thus: Stability of the compound assessed as UV-light induced degradation measured after 30 mins by HPLC analysis. It is filed as physicochemical. Conditions: 0.5 h.
Data set [6] addresses T1, Protein cereblon/Bromodomain-containing protein 4 (Homo sapiens). The data set can be described thus: PROTAC activity at CRBN/BRD4 in human MCF7 cells assessed as induction of BRD4 degradation at 1 uM measured after 18 hrs in presence of […] by Western blot analysis. It counts as cell-based.
Data set [7] shares this target. The data set is described as follows: PROTAC activity at CRBN/BRD4 in human MCF7 cells assessed as induction of BRD4 degradation at 1 uM measured after 24 hrs by Western blot analysis relative to control. It is filed as cell-based.
Data set [8] has the same target. The data set is described as follows: PROTAC activity at CRBN/BRD4 in human MCF7 cells assessed as induction of BRD4 degradation at 1 uM measured after 18 hrs in presence of MLN4924 by Western blot analysis. It is filed as cell-based.

For `Cc1sc2c(c1C)C(c1ccc(Cl)cc1)=N[C@@H](CC(=O)NCCCNC(=O)OCc1cc(OCCCNc3cccc4c3C(=O)N(C3CCC(=O)NC3=O)C4=O)ccc1[N+](=O)[O-])c1nnc(C)n1-2` (some centres undefined), the result in data set [1], in data set [6] and in data set [8] was inactive. Further, in data set [2], the outcome was Active. In addition, the figures for the Activity in data set [3], in data set [4] and in data set [7] were over 80%, “Dose-Dependent Effect” and over 80%, respectively. For the same compound, the Stability entry in data set [5] is recorded as “Unstable”.

For the compound `Cc1sc2c(c1C)C(c1ccc(Cl)cc1)=N[C@@H](CC(=O)NCCNC(=O)OCc1cc(OCCCNc3cccc4c3C(=O)N(C3CCC(=O)NC3=O)C4=O)ccc1[N+](=O)[O-])c1nnc(C)n1-2` (some centres undefined), the outcome in data set [1], in data set [6] and in data set [8] was inactive. Also, the outcome in data set [2] was Active. In addition, the Activity entry is “Dose-Dependent Effect” in data set [4] and over 80% in data set [7].

On to `Cc1sc2c(c1C)C(c1ccc(Cl)cc1)=N[C@@H](CC(=O)NCCCNC(=O)OCc1cc(OCCCNC(=O)CNc3cccc4c3C(=O)N(C3CCC(=O)NC3=O)C4=O)ccc1[N+](=O)[O-])c1nnc(C)n1-2` (some centres undefined), for which the outcome in data set [1], in data set [6] and in data set [8] was inactive. Further, the outcome in data set [2] was Active. Besides, the Activity in data set [7] is over 80%.
